Results published in patent US5869477A, “β-methylcarbapenem derivatives, process for the preparation thereof and pharmaceutical composition comprising same” (priority 1995, dated 1999).
Like-named read-outs stand apart in the source and are kept apart here.

Assays:
S. aureus SG 511 = assay: agar plate dilution method, MIC; format: cell-based; conditions: about 10^7 CFU/ml, 37° C., 18 hours
Protocol: (§1) The antibacterial activities of the β-methylcarbapenem compounds of the present invention prepared in the above Examples were determined in accordance with the agar plate dilution method(Hoechst 345). Specifically,about 10^7 CFU/ml of test bacteria(Hoechst standard strains) was inoculated to a Muller-Hinton agar medium containing serial double dilutions of the test compounds, i.e., compounds prepared in Examples 1 to 3, and incubated at 37° C. for 18 hours. Tribactam(EP 416953) and SUN-5555(Santory Co., Japan) were employed as control materials for carbapenem and penem, respectively. When the incubation was completed, the minimum inhibitory concentration of each test compounds was determined.

E. coli DC 0 = assay: agar plate dilution method, MIC; format: cell-based; conditions: about 10^7 CFU/ml, 37° C., 18 hours
Protocol: as §1

E. coli TEM = assay: agar plate dilution method, MIC; format: cell-based; conditions: about 10^7 CFU/ml, 37° C., 18 hours
Protocol: as §1

S. aureus 503 = assay: agar plate dilution method, MIC; format: cell-based; conditions: about 10^7 CFU/ml, 37° C., 18 hours
Protocol: as §1

S. aureus 285 = assay: agar plate dilution method, MIC; format: cell-based; conditions: about 10^7 CFU/ml, 37° C., 18 hours
Protocol: as §1

S. typhimurium = assay: agar plate dilution method, MIC; format: cell-based; conditions: about 10^7 CFU/ml, 37° C., 18 hours
Protocol: as §1

K. oxytoca 1082 E = assay: agar plate dilution method, MIC; format: cell-based; conditions: about 10^7 CFU/ml, 37° C., 18 hours
Protocol: as §1

E. coli 1507 E = assay: agar plate dilution method, MIC; format: cell-based; conditions: about 10^7 CFU/ml, 37° C., 18 hours
Protocol: as §1

E. coli 078 = assay: agar plate dilution method, MIC; format: cell-based; conditions: about 10^7 CFU/ml, 37° C., 18 hours
Protocol: as §1

S. faecium MD 8b = assay: agar plate dilution method, MIC; format: cell-based, Streptococcus faecium; conditions: about 10^7 CFU/ml, 37° C., 18 hours
Protocol: as §1

P. aeruginosa 1592 E = assay: agar plate dilution method, MIC; format: cell-based, Pseudomonas aeruginosa; conditions: about 10^7 CFU/ml, 37° C., 18 hours
Protocol: as §1

P. aeruginosa 1771 = assay: agar plate dilution method, MIC; format: cell-based, Pseudomonas aeruginosa; conditions: about 10^7 CFU/ml, 37° C., 18 hours
Protocol: as §1

P. aeruginosa 9027 = assay: agar plate dilution method, MIC; format: cell-based, Pseudomonas aeruginosa; conditions: about 10^7 CFU/ml, 37° C., 18 hours
Protocol: as §1

P. aeruginosa 1771 M = assay: agar plate dilution method, MIC; format: cell-based, Pseudomonas aeruginosa; conditions: about 10^7 CFU/ml, 37° C., 18 hours
Protocol: as §1

S. pyogenes 77A = assay: agar plate dilution method, MIC; format: cell-based, Streptococcus pyogenes; conditions: about 10^7 CFU/ml, 37° C., 18 hours
Protocol: as §1

S. pyogenes 308A = assay: agar plate dilution method, MIC; format: cell-based, Streptococcus pyogenes; conditions: about 10^7 CFU/ml, 37° C., 18 hours
Protocol: as §1

K. aerogenes 1522 E = assay: agar plate dilution method, MIC; format: cell-based, Klebsiella aerogenes; conditions: about 10^7 CFU/ml, 37° C., 18 hours
Protocol: as §1

E. cloacae 1321 E = assay: agar plate dilution method, MIC; format: cell-based, Enterobacter cloacae; conditions: about 10^7 CFU/ml, 37° C., 18 hours
Protocol: as §1

E. cloacae P 99 = assay: agar plate dilution method, MIC; format: cell-based, Enterobacter cloacae; conditions: about 10^7 CFU/ml, 37° C., 18 hours
Protocol: as §1

[1] = bioavailability indices in infected mice, one-compartment oral model; parameters: species or system I.C.R. mouse; conditions: in vivo; for AUC / p.o./s.c. / Cmax / Tmax / half-life: 40 mg/kg; for pharmacokinetics values and p.o. absorption versus controls (in words) / Cmax / Tmax / half-life: po
Protocol: The in vivo antibacterial activities and pharmacological activities of the β-methylcarbapenem compounds of the present invention were tested as follows. Specifically, 4 to 5 week-old I.C.R. mouse, each weighing 22 to 25 g and infected with Streptococcus pyogenes 77A, were administered per os with the solutions of the compounds of Examples 5 and 9 dissolved in 10% DMSO, at a dosage of 40 mg/kg body weight. The bioavailability indices, e.g., Cmax, Tmax, t1/2, AUC and p.o./s.c. were determined in accordance with one-compartment oral model method(Drug Metabolism Reviews, 17, 331-348(1986)). The one-compartment oral model was prepared by curve fitting using Gauss-Newto method and calculation using PKCALC computer program.

Compound	minimum inhibitory concentration (S. aureus SG 511)	minimum inhibitory concentration (E. coli DC 0)	minimum inhibitory concentration (E. coli TEM)	minimum inhibitory concentration (S. aureus 503)	minimum inhibitory concentration (S. aureus 285)	minimum inhibitory concentration (S. typhimurium)	minimum inhibitory concentration (K. oxytoca 1082 E)	minimum inhibitory concentration (E. coli 1507 E)	minimum inhibitory concentration (E. coli 078)	minimum inhibitory concentration (S. faecium MD 8b)	minimum inhibitory concentration (P. aeruginosa 1592 E)	minimum inhibitory concentration (P. aeruginosa 1771)	minimum inhibitory concentration (P. aeruginosa 9027)	minimum inhibitory concentration (P. aeruginosa 1771 M)	minimum inhibitory concentration (S. pyogenes 77A)	minimum inhibitory concentration (S. pyogenes 308A)	minimum inhibitory concentration (K. aerogenes 1522 E)	minimum inhibitory concentration (E. cloacae 1321 E)	p.o./s.c. ([1]; mouse)	half-life ([1]; mouse)	other results
CC(C)[C@@H](O)C1=C(C(=O)O)N2C(=O)[C@H]([C@@H](C)O)[C@H]2[C@H]1C [Example 1, potassium (1S, 5R, 6S)-2-[(1R)-1-hydroxy-2-methylpropyl]-6-[(1R)-1-hydroxyethyl]-1-methyl-2-carbapenem-3-carboxylate]	0.098	0.195	0.195	0.098	0.098	0.098	1.563	0.049	0.049	3.125	> 100	100	> 100	0.781	0.013	0.013	0.391	0.098	–	–	–
C[C@@H](O)[C@H]1C(=O)N2C(C(=O)O)=C([C@H](O)C3CC3)[C@H](C)[C@H]12 [Example 2, potassium (1S, 5R, 6S)-2-[(R)-(cyclopropyl) hydroxymethyl]-6-[(1R)-1-hydroxyethyl]-1-methyl-2-carbapenem-3-carboxylate]	0.049	0.098	0.098	0.049	0.049	0.098	0.781	0.049	0.098	0.781	100.0	100.0	100.0	1.563	0.007	0.007	0.195	0.098	–	–	–
C[C@@H](O)[C@H]1C(=O)N2C(C(=O)O)=C([C@H](O)C3CCCC3)[C@H](C)[C@H]12 [Example 3, potassium (1S, 5R, 6S)-2-[(R)-(cyclopentyl)hydroxymethyl]-6-[(1R)-1-hydroxyethyl]-1-methyl-2-carbapenem-3-carboxylate]	0.098	–	0.391	0.098	0.098	0.098	1.563	0.098	0.195	0.781	> 100.0	> 100.0	> 100.0	1.563	0.007	0.004	0.781	0.391	–	–	minimum inhibitory concentration (E. cloacae P 99): 6.250
Cc1oc(=O)oc1COC(=O)C1=C([C@H](O)C(C)C)[C@H](C)[C@@H]2[C@@H]([C@@H](C)O)C(=O)N12 [Example 5, (5-methyl-2-oxo-1,3-dioxolen-4-yl)methyl (1S, 5R, 6S)-2-[(1R)-1-hydroxy-2-methylpropyl]-6-[(1R)-1-hydroxyethyl]-1-methyl-2-carbapenem-3-carboxylate]	–	–	–	–	–	–	–	–	–	–	–	–	–	–	–	–	–	–	32.50%	16.2 min	AUC ([1]; mouse): 3.80; pharmacokinetics values and p.o. absorption versus controls (in words) ([1]; mouse): superior pharmacokinetics values and p.o. absorption over the controls; Cmax ([1]; mouse): 8770 ng/mL; Tmax ([1]; mouse): 10.2 min
CC(C)OC(=O)OC(C)OC(=O)C1=C([C@H](O)C(C)C)[C@H](C)[C@@H]2[C@@H]([C@@H](C)O)C(=O)N12 (stereo partly drawn) [Example 9, isopropyloxycarbonyloxy-1-ethyl (1S, 5R, 6S)-2-[(1R)-1-hydroxy-2-methylpropyl]-6-[(1R)-1-hydroxyethyl]-1-methyl-2-carbapenem-3-carboxylate]	–	–	–	–	–	–	–	–	–	–	–	–	–	–	–	–	–	–	32.42%	19.8 min	AUC ([1]; mouse): 6.78; pharmacokinetics values and p.o. absorption versus controls (in words) ([1]; mouse): superior pharmacokinetics values and p.o. absorption over the controls; Cmax ([1]; mouse): 10400 ng/mL; Tmax ([1]; mouse): 19.8 min
C[C@@H](O)[C@H]1C(=O)N2C(C(=O)O)=C([C@H]3CCCO3)S[C@H]12 [SUN-5555, reference compound]	0.098	0.781	0.391	0.098	0.098	0.195	0.391	0.195	0.195	6.250	> 100.0	> 100.0	> 100.0	3.125	0.007	0.013	0.391	0.391	22.71%	22.8 min	Cmax ([1]; I.C.R. mouse infected with S. pyogenes 77A, per os, 10% DMSO, read-out: Cmax): 2640 ng/mL; Tmax ([1]; I.C.R. mouse infected with S. pyogenes 77A, per os, 10% DMSO, read-out: Tmax): 25.2 min; minimum inhibitory concentration (E. cloacae P 99): 1.563
